Where two headings read alike, the source gives them in different places.

The experiment has as its system P. falciparum NF54 male gametocytes (stage V). In words: Male gamete exflagellation assay. Particulars: for Inhibition of male exflagellation at 1 µM: 48 h; for activity at 1 µM: Plasmodium falciparum. Format: cell-based, Plasmodium falciparum. How it is done:
The above selected 30 compounds were subjected to a phenotypic male gamete exflagellation assay. This assay measures the viability of male gametocytes by quantitating the final step of maturation into motile microgametes in vitro[24]. This process naturally occurs in the mosquito gut within minutes from the blood meal. The acquisition of time lapse videos of gamete motility in bright field microscopy and the subsequent analysis to count exflagellation centres were performed in an automated HTS format in 384-well plates. The compounds were tested in two independent biological replicates at the concentration of 1 µM. […] The results of this study led to the identification of 16 compounds with anti-exflagellation activity (Fig. 4). […] The standard membrane feeding assay (SMFA) is used to measure the parasite transmission through mosquito. In this assay, mature stage V gametocytes of the P. falciparum strain NF54-hsp70-luc were treated with 1 and 10 µM of the nine selected compounds for 24 h, added with human red blood cells and serum to achieve a haematocrit of 50% and then fed to mosquitoes. Luminescence was analyzed in […] 8 days post-feeding.
Asexual parasites of the NF54 line, kindly obtained from Elena Levashina’s laboratory (Max Plank Institute for Infection Biology, Berlin, Germany), were seeded at 1% total parasitemia and grown for 16 days changing medium every day until development of stage V gametocytes (about 1–2% of stage V gametocytemia). 100 µl of gametocyte culture was seeded in each well of a 96 well-plate and 100 µl of 2× concentration of compounds or DMSO as control were added to each well to achieve the desired final concentration. Assay plates were incubated for 48 h at 37 °C in 4% CO2, 3% O2, and 93% N2 modified atmosphere. After the incubation period, 100 µl of medium were removed from each well and the other 100 µl were transferred to a black imaging 96 well plate (ibidi) containing 100 µl of complete medium supplemented with 40 µM of xanthurenic acid. After 15 min, exflagellation events were captured by three ten-second videos each well with an Olympus IX83 inverted microscope with a UPLSAPO 10× N.A. 0.75 objective (Olympus, Japan), equipped with a Hamamatsu ORCA-Flash 4.0 V3 camera. Each video was analyzed using the Icy bio-image analysis software (http://icy.bioimageanalysis.org/) to count the number of exflagellation events.

[1] abbreviates: NF54, read-out: Exflagellation @ 1 uM (% of DMSO) 1.
Where [2] appears, read: NF54, read-out: Exflagellation @ 1 uM (% of DMSO) 2.

For the compound `Clc1ccc(Nc2nc(-c3ccccn3)cs2)nc1` [Compound 39], the “Inhibition of male exflagellation at 1 µM” value (shortened to “Inhibition”) is, setting by setting: (1 µM, Replicate 1) 30.5085; (1 µM, Replicate 2) 73.2558. For the same compound, the activity at 1 µM under setting [1] amounted to 30.5% and the activity at 1 µM under setting [2] turned out to be 73.3%.

As to `OC(c1ccc(Cl)cc1)C1CCN(CCCN2CCC(C(O)c3ccc(Cl)cc3)CC2)CC1` (centres unmarked) [Compound 13], the “Inhibition” value is 15.4 (1 µM, Replicate 1) and 64.1 (1 µM, Replicate 2). Further, the activity at 1 µM came to 15.4% under setting [1] and 64.1% under setting [2].

For `COc1cc(CNCC2CCNCC2)ccc1OCc1cccc(Cl)c1` [Compound 53], under “1 µM”, the “male gamete exflagellation reduced to” value is 20–30%. The “Inhibition” value (1 µM, Replicate 1) was determined as 19.2 and the “Inhibition” value (1 µM, Replicate 2) came out at 35.9. In addition, the activity at 1 µM runs as follows: under setting [1], 19.2%; under setting [2], 35.9%.

On to `Cc1ccc2nc(-c3ccccc3)c(CSc3cccc[n+]3[O-])n2c1` [Compound 16], for which the “Inhibition” value is listed as 23.1 (1 µM, Replicate 1) and 19.2 (1 µM, Replicate 2). The activity at 1 µM by setting is: under setting [1], 23.1%; under setting [2], 19.2%.

With `COc1ccccc1Cn1cc2c(-c3ccc(F)cc3)nnc-2c2cc(OC)c(OC)cc21` [Compound 31], the “Inhibition” value is, setting by setting: (1 µM, Replicate 1) 80.597; (1 µM, Replicate 2) 111.628. For the same compound, the activity at 1 µM was 80.6% under setting [1] and 112% under setting [2].

Turning to `COc1ccc(Nc2cc(C)nc(Nc3ccc(NC(=O)c4cc(C)cc(C)c4)cc3)n2)cc1` [Compound 64], the “Inhibition” value was determined as 108.475 (1 µM, Replicate 1) and 123.2 (1 µM, Replicate 2). Besides, the activity at 1 µM is 108% under setting [1] and 123% under setting [2].

For the compound `O=C(c1ccc([N+](=O)[O-])o1)N1CCC(Cn2cnc3ccccc32)CC1` [Compound 69], the activity at 1 µM by setting is: under setting [1], 17.3%; under setting [2], 57.7%.

With `COc1ccc(NC(=O)Nc2ccc(Nc3nc(C)cc(Nc4ccc(C)cc4)n3)cc2)cc1` [Compound 65], the “Inhibition” value reads like this: (1 µM, Replicate 1) 5.085; (1 µM, Replicate 2) 52.8. For the same compound, the activity at 1 µM runs as follows: under setting [1], 5.08%; under setting [2], 52.8%.

As for `Cc1ccc(Nc2cc(C)nc(Nc3ccc(NC(=O)c4cc5ccccc5oc4=O)cc3)n2)cc1` [Compound 63], the “Inhibition” value is, setting by setting: (1 µM, Replicate 1) 62.7119; (1 µM, Replicate 2) 21.3333. Further, the activity at 1 µM is, setting by setting: under setting [1], 62.7%; under setting [2], 21.3%.

Values taken from publication PMC9170688, “Gametocyte-specific and all-blood-stage transmission-blocking chemotypes discovered from high throughput screening on Plasmodium falciparum gametocytes” (Communications Biology, 2022).
